Reference: publication PMC10572743 (International Journal of Molecular Sciences, 2023)
Like-named read-outs stand apart in the source and are kept apart here. Marks after values point to notes of the source that are not given here.

Columns and labels:
BChE = BChE (Equus caballus, UniProt P81908); assay: biochemical; assay type: biochemical; conditions: for inhibition at 350 µM / inhibition at 250 µM / inhibition at 500 µM: read-out: BChE % Inhibition
AChE = AChE (Electrophorus electricus, UniProt O42275); assay: biochemical; assay type: biochemical; conditions: for inhibition: at maximal concentration tested 350 μM; for inhibition at 250 µM: at maximal concentration tested 250 μM; for selectivity AChE over BChE: from IC50 values of Table 2; for inhibition at 500 µM: at maximal concentration tested 500 μM
Sequence of AChE (O42275 24-633): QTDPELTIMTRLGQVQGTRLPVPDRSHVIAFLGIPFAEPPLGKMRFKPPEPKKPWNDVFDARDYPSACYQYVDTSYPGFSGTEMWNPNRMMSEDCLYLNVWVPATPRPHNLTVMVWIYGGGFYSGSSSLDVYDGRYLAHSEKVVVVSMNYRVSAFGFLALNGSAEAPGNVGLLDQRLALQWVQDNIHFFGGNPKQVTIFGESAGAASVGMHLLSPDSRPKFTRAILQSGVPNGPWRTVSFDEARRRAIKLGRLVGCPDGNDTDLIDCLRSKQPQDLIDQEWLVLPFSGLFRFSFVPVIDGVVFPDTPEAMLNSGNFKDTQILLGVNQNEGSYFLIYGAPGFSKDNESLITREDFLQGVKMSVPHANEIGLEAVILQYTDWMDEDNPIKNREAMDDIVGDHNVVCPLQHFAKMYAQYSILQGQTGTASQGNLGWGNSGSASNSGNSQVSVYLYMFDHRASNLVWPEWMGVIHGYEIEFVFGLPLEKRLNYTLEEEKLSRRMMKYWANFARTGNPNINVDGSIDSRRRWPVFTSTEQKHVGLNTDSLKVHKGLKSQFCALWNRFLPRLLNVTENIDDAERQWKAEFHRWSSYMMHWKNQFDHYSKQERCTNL

[1] = test system: TNF-α production in PBMC stimulated with LPS; assay: Inhibition of TNF-α production in PBMCs stimulated with LPS (ELISA); assay type: cell-based; conditions: Homo sapiens, average of 2 independent experiments (donors), LPS 1 ng/mL, 24 h, read-out: IC50/μM (av.) PMBC-LPS/TNF-α
Experimental: PBMC isolation. Human peripheral blood mononuclear cells (PBMCs) were isolated from buffy coats obtained from healthy adult volunteers. The buffy coats were diluted with sterile PBS and layered over Lymphoprep (Axis-Shield Diagnostics, Dundee, UK). Tubes were centrifuged for 35 min at 400× g (RT; acceleration and break turned off). After centrifugation, the mononuclear ring was collected, transferred into a new 50 mL tube, and washed thrice with sterile PBS. The remaining erythrocytes were lysed with an isotonic solution of ammonium chloride (150 mM; Kemika, Zagreb, Croatia).
Treatment and stimulation of human PBMCs. Immediately after isolation, 200,000 PBMCs were seeded per well of a 96-well plate. Compounds were dissolved in 100% dimethyl sulfoxide (DMSO, Sigma, Darmstadt, Germany), and serial dilutions in DMSO were prepared and added to cells, with starting concentration for test compounds 100 µM or 1 µM for reference dexamethasone. […] Plates were incubated for 24 h at 37 °C, 5% CO2, followed by the collection of supernatants for measurement of TNF-α and cell viability assessment.
Enzyme-linked immunosorbent assay (ELISA) and cytotoxicity analysis. TNFα concentration in PBMC supernatants was measured using ELISA assay, using antibodies obtained from BD Pharmingen (San Diego, CA, USA) and recombinant human TNFα protein (standard) from R&D Systems (Minneapolis, MN, USA). Lumitrac 600 384-well plates (Greiner Bio-One, Kremsmünster, Austria) were coated overnight with 1 µg/mL of TNFα capture antibody diluted in phosphate-buffered saline (PBS, Thermo Fisher Scientific, Waltham, MA, USA), followed by a washing step and blocking with 5% sucrose in assay diluent (1% bovine serum albumin (BSA; Sigma, Darmstadt, Germany) in PBS) for 4 h at RT. After the blocking step, the plates were washed, and samples/standards were added to the plates. After overnight incubation at 4 °C, detection antibodies diluted in assay diluent to a final concentration of 250 ng/mL were added. Following incubation for 2 h at RT, plates were washed, and streptavidin-HRP (Thermo Fisher Scientific, Waltham, MA, USA) solution was added (final concentration 500 ng/mL, prepared in assay diluent). Plates were incubated for 20 min at RT in the dark and washed, followed by adding Luminol substrate (Sigma, Darmstadt, Germany). […] To evaluate cell viability, Cell Titer Glo reagent was used (Promega, Madison, WI, USA) according to the manufacturer’s instructions.
(§1) Data analysis. For ELISA, the blank was subtracted from measured RLU values, and TNFα concentrations in samples were interpolated from the standard curve. QC parameters for each plate were calculated from raw data. […] For viability assessment, the average luminescence value was calculated from all trigger vehicle samples, and the percentage of vehicle value was calculated for all samples. The compound effect was considered cytotoxic if reduction from a vehicle was ≥20%, and these concentrations were excluded from further analysis. IC50 values of tested compounds were determined in GraphPad Prism 9 software using nonlinear regression curve fit (four parameters, with variable slope).

[2] = test system: TNF-α production in PBMC stimulated with LPS; conditions: previous research; read-out: PMBC-LPS/TNFα; cited from earlier work
PBMCs = assay: Cell viability of PBMCs after incubation with compounds (ATP, Cell Titer Glo); assay type: cell-based
Experimental: The potential to act anti-inflammatory was evaluated for 1,2,3-triazole derivatives 1–31 in vitro in an assay where PBMCs from 2 healthy donors were stimulated with LPS to induce the immune response. As a measurement of response, the pro-inflammatory cytokine TNF-α was determined. […] […].
Treatment and stimulation of human PBMCs. Immediately after isolation, 200,000 PBMCs were seeded per well of a 96-well plate. Compounds were dissolved in 100% dimethyl sulfoxide (DMSO, Sigma, Darmstadt, Germany), and serial dilutions in DMSO were prepared and added to cells, with starting concentration for test compounds 100 µM or 1 µM for reference dexamethasone. After pre-incubation for 1h with the compounds, lipopolysaccharide (LPS) from E. coli 0111:B4 (Sigma, Darmstadt, Germany) was added to cells at 1 ng/mL final concentration. Plates were incubated for 24 h at 37 °C, 5% CO2, followed by the collection of supernatants for measurement of TNF-α and cell viability assessment.
Enzyme-linked immunosorbent assay (ELISA) and cytotoxicity analysis. TNFα concentration in PBMC supernatants was measured using ELISA assay, using antibodies obtained from BD Pharmingen (San Diego, CA, USA) and recombinant human TNFα protein (standard) from R&D Systems (Minneapolis, MN, USA). Lumitrac 600 384-well plates (Greiner Bio-One, Kremsmünster, Austria) were coated overnight with 1 µg/mL of TNFα capture antibody diluted in phosphate-buffered saline (PBS, Thermo Fisher Scientific, Waltham, MA, USA), followed by a washing step and blocking with 5% sucrose in assay diluent (1% bovine serum albumin (BSA; Sigma, Darmstadt, Germany) in PBS) for 4 h at RT. After the blocking step, the plates were washed, and samples/standards were added to the plates. […]. Following incubation for 2 h at RT, plates were washed, and streptavidin-HRP (Thermo Fisher Scientific, Waltham, MA, USA) solution was added (final concentration 500 ng/mL, prepared in assay diluent). Plates were incubated for 20 min at RT in the dark and washed, followed by adding Luminol substrate (Sigma, Darmstadt, Germany). Luminescence was measured using EnVision 2104 Multilabel Plate Reader (PerkinElmer, MA, USA), with an exposition time of 0.1 s. […]
as §1, with “The compound effect was considered cytotoxic if reduction from a vehicle was ≥20%, and these concentrations were excluded from further analysis.” left out

[3] = PBMC, ATP levels, highest tested concentration

Sequence of BChE (P81908 whole entry): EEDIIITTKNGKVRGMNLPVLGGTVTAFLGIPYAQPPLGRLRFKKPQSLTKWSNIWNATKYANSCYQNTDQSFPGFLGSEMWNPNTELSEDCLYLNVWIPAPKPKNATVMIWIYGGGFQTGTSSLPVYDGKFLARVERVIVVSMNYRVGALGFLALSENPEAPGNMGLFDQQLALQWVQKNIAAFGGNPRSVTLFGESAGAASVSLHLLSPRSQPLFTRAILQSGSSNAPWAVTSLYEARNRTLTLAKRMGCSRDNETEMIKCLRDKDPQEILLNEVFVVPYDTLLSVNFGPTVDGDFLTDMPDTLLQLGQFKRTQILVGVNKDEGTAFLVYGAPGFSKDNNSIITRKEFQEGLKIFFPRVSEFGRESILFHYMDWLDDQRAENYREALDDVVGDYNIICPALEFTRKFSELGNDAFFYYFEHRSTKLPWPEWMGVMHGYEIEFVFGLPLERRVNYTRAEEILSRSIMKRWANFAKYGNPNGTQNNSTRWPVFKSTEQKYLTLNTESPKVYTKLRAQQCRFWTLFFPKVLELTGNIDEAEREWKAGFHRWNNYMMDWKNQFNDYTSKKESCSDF

Cc1cc2c(ccc3nnn(Cc4cccs4)c32)s1 [Compound 11, 7-methyl-1-(thiophen-2-ylmethyl)-1H-thieno[3′,2′:3,4]benzo[1,2-d][1–3]triazole]
IC50 (BChE): 123 µM | inhibition at 350 µM (BChE): 72.3 ± 5.6% | IC50 (AChE): 218 µM | inhibition (AChE): 71.3 ± 0.3% | IC50 [1]: 38.7 µM

COc1ccc(Cn2nnc3ccc4ccc(OC)cc4c32)cc1 [C]
IC50 [2]: 2.2 µM

FC(F)(F)c1ccc(Cn2nnc3ccc4sccc4c32)cc1 [Compound 19]
IC50 [1]: 10.2 µM | cell viability (PBMCs): 10.2 ** | cell viability (PBMCs; [3]): cell viability reduction

FC(F)(F)Oc1ccc(Cn2nnc3ccc4sccc4c32)cc1 [Compound 20]
IC50 [1]: 8.9 µM | cell viability (PBMCs; [3]): cell viability reduction

C[C@@H]1C[C@H]2[C@@H]3CCC4=CC(=O)C=C[C@]4(C)[C@@]3(F)[C@@H](O)C[C@]2(C)[C@@]1(O)C(=O)CO [dexamethasone, reference compound]
IC50 [1]: 0.007 µM

c1cc2c(s1)CCc1nnn(CCN3CCOCC3)c1-2 [Compound 24]
IC50 [1]: > 100 µM

COc1ccc(CCn2nnc3ccc4sccc4c32)cc1 [Compound 21]
IC50 [1]: 17 µM

Clc1nc2c(ccc3sccc32)s1 [Compound 29]
IC50 [1]: > 100 µM

COc1ccc2ccc3nnn(Cc4cccc(F)c4)c3c2c1 [Compound 5, 1-(3-fluorobenzyl)-8-methoxy-1H-naphtho[1,2-d][1–3]triazole]
inhibition at 250 µM (BChE): 43.8 ± 1.8% | IC50 (AChE): 55.5 µM | inhibition at 250 µM (AChE): 80.8 ± 1.8% | selectivity AChE over BChE (AChE): Selective inhibition toward AChE | IC50 [1]: > 100 µM

Cc1cc2c(ccc3nnn(Cc4ccc(F)cc4)c32)s1 [Compound 9, 1-(4-fluorobenzyl)-7-methyl-1H-thieno[3′,2′:3,4]benzo[1,2-d][1–3]triazole]
IC50 (BChE): 69.8 µM | inhibition at 350 µM (BChE): 76.1 ± 0.8% | IC50 (AChE): 83 µM | inhibition (AChE): 78.8 ± 1.9% | IC50 [1]: > 100 µM

OCCCCn1nnc2ccc3sccc3c21 [Compound 14]
IC50 [1]: 38.8 µM

C=CCCn1nnc2ccc3ccc(OC)cc3c21 [Compound 2, 1-(but-3-en-1-yl)-8-methoxy-1H-naphtho[1,2-d][1–3]triazole]
IC50 (BChE): 110 µM | inhibition at 500 µM (BChE): 80.2 ± 0.7% | IC50 (AChE): 91.8 µM | inhibition at 500 µM (AChE): 77.9 ± 3.6% | IC50 [1]: 10.4 µM

c1csc(Cn2nnc3ccc4sccc4c32)c1 [Compound 22]
IC50 [1]: 16.1 µM

C=CCCCn1nnc2ccc3sccc3c21 [Compound 13, 1-(pent-4-en-1-yl)-1H-thieno[3′,2′:3,4]benzo[1,2-d][1–3]triazole]
IC50 (BChE): 40.7 µM | selectivity BChE over AChE (BChE; from IC50 values of Table 2): selective inhibition for BChE | inhibition at 250 µM (BChE): 86.5 ± 5% | inhibition at 250 µM (AChE): 46.4 ± 2.5% | IC50 [1]: 21.3 µM

C=CCCCn1nnc2ccc3ccc(OC)cc3c21 [Compound 3, 8-methoxy-1-(pent-4-en-1-yl)-1H-naphtho[1,2-d][1–3]triazole]
IC50 (BChE): 53.5 µM | inhibition at 250 µM (BChE): 76.6 ± 1.8% | IC50 (AChE): 51.3 µM | inhibition at 250 µM (AChE): 64.8 ± 5.3% | IC50 [1]: 12 µM

COc1ccc2ccc3nnn(Cc4ccc(F)cc4)c3c2c1 [Compound 4, 1-(4-fluorobenzyl)-8-methoxy-1H-naphtho[1,2-d][1–3]triazole]
inhibition at 500 µM (BChE): 25 ± 0.5% | inhibition at 500 µM (AChE): 35.1 ± 2% | IC50 [1]: 19.1 µM

CCOC(=O)CCn1nnc2ccc3sccc3c21 [Compound 17]
IC50 [1]: > 100 µM

C=CCn1nnc2ccc3sc(C)cc3c21 [Compound 8, 1-allyl-7-methyl-1H-thieno[3′,2′:3,4]benzo[1,2-d][1–3]triazole]
IC50 (BChE): 206 µM | inhibition at 350 µM (BChE): 62.6 ± 0.2% | inhibition (AChE): 43.5 ± 2.1% | IC50 [1]: > 100 µM

FC(F)(F)c1nc2c(ccc3sccc32)s1 [Compound 30]
IC50 [1]: > 100 µM

CC(=O)Nc1nc2c(ccc3sccc32)s1 [Compound 31]
IC50 [1]: > 100 µM

COc1cccc(Cn2nnc3ccc4ccc(OC)cc4c32)c1 [Compound 6, 8-methoxy-1-(3-methoxybenzyl)-1H-naphtho[1,2-d][1–3]triazole]
inhibition at 250 µM (BChE): 47.8 ± 0.5% | IC50 (AChE): 177 µM | inhibition at 250 µM (AChE): 78.6 ± 3.8% | selectivity AChE over BChE (AChE): Selective inhibition toward AChE | IC50 [1]: 1.9 µM

COc1ccc2ccc3nnn(C(C)C)c3c2c1 [Compound 1, 1-isopropyl-8-methoxy-1H-naphtho[1,2-d][1–3]triazole]
IC50 (BChE): 261 µM | inhibition at 500 µM (BChE): 65.3 ± 0.7% | IC50 (AChE): 329 µM | inhibition at 500 µM (AChE): 58.1 ± 1.6% | IC50 [1]: 8.1 µM

COc1ccc(Cn2nnc3ccc4sc(C)cc4c32)cc1 [Compound 10, 1-(4-methoxybenzyl)-7-methyl-1H-thieno[3′,2′:3,4]benzo[1,2-d][1–3]triazole]
IC50 (BChE): 99.7 µM | inhibition at 350 µM (BChE): 65.2 ± 0.3% | IC50 (AChE): 66.6 µM | inhibition (AChE): 83.6 ± 3.7% | IC50 [1]: 19.2 µM

FC(F)(F)c1ccc(Cn2nnc3c2-c2ccsc2CC3)cc1 [Compound 26]
IC50 [1]: 9.4 µM | cell viability (PBMCs; [3]): cell viability reduction

c1cc2c(s1)CCc1nnn(CCCN3CCOCC3)c1-2 [Compound 25]
IC50 [1]: > 100 µM

Cc1cc2c(ccc3nnn(Cc4ccco4)c32)s1 [Compound 12, 1-(furan-2-ylmethyl)-7-methyl-1H-thieno[3′,2′:3,4]benzo[1,2-d][1–3]triazole]
inhibition at 350 µM (BChE): 46.1% | inhibition (AChE): 41.8 ± 1% | IC50 [1]: 40.6 µM

CC(C)c1nc2ccc3sccc3c2s1 [Compound 28]
IC50 [1]: > 100 µM

Cc1nc2c(ccc3sccc32)s1 [Compound 27]
IC50 [1]: 12.2 µM

Fc1ccc(Cn2nnc3ccc4sccc4c32)cc1 [Compound 18]
IC50 [1]: 27.7 µM

c1cc2c(ccc3nnn(CCCN4CCOCC4)c32)s1 [Compound 16]
IC50 [1]: > 100 µM

OCCCCn1nnc2c1-c1ccsc1CC2 [Compound 23]
IC50 [1]: > 100 µM

COc1ccc2ccc3nnn(Cc4cccs4)c3c2c1 [Compound 7, 8-methoxy-1-(thiophen-2-ylmethyl)-1H-naphtho[1,2-d][1–3]triazole]
IC50 (BChE): 294 µM | inhibition at 500 µM (BChE): 60.9 ± 0.4% | IC50 (AChE): 110 µM | inhibition at 500 µM (AChE): 81.4 ± 0.8% | IC50 [1]: > 100 µM
